US20180000085A1, “USE OF PICOLINAMIDE COMPOUNDS WITH FUNGICIDAL ACTIVITY” (DOW AGROSCIENCES LLC, priority 2014, published 2018)

How the values were obtained:
Puccinia triticina = assay: Wheat brown rust (PUCCRT) disease control on wheat seedlings; assay type: in vivo; design: key to PUCCRT 3DC, HV activity at 100 ppm (% control rating) / PUCCRT disease control, 3DC / PUCCRT 1DP disease control rating, HV activity / PUCCRT 3DC disease control rating, HV activity / PUCCRT 3DC, LV activity at 125.1 g/H (% Control rating) / PUCCRT 1DP, LV activity at 125.1 g/H (% Control rating) / PUCCRT 3DC disease control rating, LV activity at 125.1 g/H / PUCCRT 1DP disease control rating, LV activity at 125.1 g/H / PUCCRT 3DC disease control rating, HV activity at 100 ppm / PUCCRT 1DP disease control rating, HV activity at 100 ppm / HV activity at 100 ppm PUCCRT 3DC (disease control rating) / LV activity at 125.1 g/H PUCCRT 1DP (disease control rating) / LV activity at 125.1 g/H PUCCRT 3DC (disease control rating): A: > 80; B: ≤ 80; C: Not Tested; D: No Activity Observed in the Reported Assay; conditions: for PUCCRT 1DP disease control rating, HV activity / PUCCRT 3DC disease control rating, HV activity: HV application at 100 ppm, wheat brown rust
Protocol: All fungicides were evaluated using the aforementioned method for their activity vs. all target diseases, unless stated otherwise. Wheat leaf blotch and brown rust activity were also evaluated using track spray applications, in which case the fungicides were formulated as EC formulations, containing 0.1% Trycol 5941 in the spray solutions. Wheat plants (variety Yuma) were grown from seed in a greenhouse in 50% mineral soil/50% soil-less Metro mix until the first leaf was fully emerged, with 7-10 seedlings per pot. These plants were inoculated with an aqueous spore suspension of Zymoseptoria tritici either prior to or after fungicide treatments. After inoculation the plants were kept in 100% relative humidity (one day in a dark dew chamber followed by two to three days in a lighted dew chamber at 20° C.) to permit spores to germinate and infect the leaf. The plants were then transferred to a greenhouse set at 20° C. for disease to develop. When disease symptoms were fully expressed on the 1st leaves of untreated plants, infection levels were assessed on a scale of 0 to 100 percent disease severity. Percent disease control was calculated using the ratio of disease severity on treated plants relative to untreated plants. Example B: Evaluation of Fungicidal Activity: Wheat Brown Rust (Puccinia triticina; Synonym: Puccinia recondita f. sp. Tritici; Bayer Code PUCCRT) Wheat plants (variety Yuma) were grown from seed in a greenhouse in 50% mineral soil/50% soil-less Metro mix until the first leaf was fully emerged, with 7-10 seedlings per pot. These plants were inoculated with an aqueous spore suspension of Puccinia triticina either prior to or after fungicide treatments. […] The plants were then transferred to a greenhouse set at 24° C. for disease to develop. Fungicide formulation, application and disease assessment followed the procedures as described in the Example A.

Zymoseptoria tritici = assay: Leaf blotch of wheat (SEPTTR) disease control on wheat seedlings; assay type: in vivo; design: key to SEPTTR 1DP, HV activity at 100 ppm (% control rating) / SEPTTR 3DC, HV activity at 100 ppm (% control rating) / SEPTTR disease control, 1DP / SEPTTR disease control, 3DC / SEPTTR 1DP disease control rating, HV activity / SEPTTR 3DC disease control rating, HV activity / SEPTTR 3DC, LV activity at 125.1 g/H (% Control rating) / SEPTTR 1DP, LV activity at 125.1 g/H (% Control rating) / SEPTTR 1DP disease control rating, LV activity at 125.1 g/H / SEPTTR 3DC disease control rating, LV activity at 125.1 g/H / SEPTTR 3DC disease control rating, HV activity at 100 ppm / SEPTTR 1DP disease control rating, HV activity at 100 ppm / HV activity at 100 ppm SEPTTR 3DC (disease control rating) / HV activity at 100 ppm SEPTTR 1DP (disease control rating) / LV activity at 125.1 g/H SEPTTR 1DP (disease control rating) / LV activity at 125.1 g/H SEPTTR 3DC (disease control rating): A: > 80; B: ≤ 80; C: Not Tested; D: No Activity Observed in the Reported Assay; conditions: for SEPTTR 1DP disease control rating, HV activity / SEPTTR 3DC disease control rating, HV activity: HV application at 100 ppm, wheat leaf blotch
Protocol: All fungicides were evaluated using the aforementioned method for their activity vs. all target diseases, unless stated otherwise. Wheat leaf blotch and brown rust activity were also evaluated using track spray applications, in which case the fungicides were formulated as EC formulations, containing 0.1% Trycol 5941 in the spray solutions. Wheat plants (variety Yuma) were grown from seed in a greenhouse in 50% mineral soil/50% soil-less Metro mix until the first leaf was fully emerged, with 7-10 seedlings per pot. These plants were inoculated with an aqueous spore suspension of Zymoseptoria tritici either prior to or after fungicide treatments. After inoculation the plants were kept in 100% relative humidity (one day in a dark dew chamber followed by two to three days in a lighted dew chamber at 20° C.) to permit spores to germinate and infect the leaf. The plants were then transferred to a greenhouse set at 20° C. for disease to develop. When disease symptoms were fully expressed on the 1st leaves of untreated plants, infection levels were assessed on a scale of 0 to 100 percent disease severity. Percent disease control was calculated using the ratio of disease severity on treated plants relative to untreated plants.

[1] = HV activity at 100 ppm, 1 Day Protectant, wheat
[2] = HV activity at 100 ppm, 3 Day Curative, wheat
[3] = high volume application, 100 ppm, 1DP
[4] = high volume application, 100 ppm, 3DC

Row | Compound | PUCCRT disease control, 1DP (Puccinia triticina; [1]) | PUCCRT disease control, 3DC (Puccinia triticina; [2]) | PUCCRT 1DP disease control rating, HV activity (Puccinia triticina; 1 Day Protectant) | PUCCRT 3DC disease control rating, HV activity (Puccinia triticina; 3 Day Curative) | PUCCRT 1DP, HV activity at 100 ppm (% control rating) (Puccinia triticina; [3]) | PUCCRT 3DC, HV activity at 100 ppm (% control rating) (Puccinia triticina; [4]) | SEPTTR disease control, 1DP (Zymoseptoria tritici; [1]) | SEPTTR disease control, 3DC (Zymoseptoria tritici; [2]) | SEPTTR 1DP disease control rating, HV activity (Zymoseptoria tritici; 1 Day Protectant) | SEPTTR 3DC disease control rating, HV activity (Zymoseptoria tritici; 3 Day Curative) | SEPTTR 1DP, HV activity at 100 ppm (% control rating) (Zymoseptoria tritici; [3]) | SEPTTR 3DC, HV activity at 100 ppm (% control rating) (Zymoseptoria tritici; [4])
1 | CCCOC(CC)C(Oc1ccccc1)C(C)OC(=O)C(CC)NC(=O)c1nccc(OC)c1O (stereo not drawn) [Cmpd 296] | B (≤ 80) | A (> 80) | B (≤ 80) | A (> 80) | B (≤ 80) | A (> 80) | B (≤ 80) | B (≤ 80) | B (≤ 80) | B (≤ 80) | B (≤ 80) | B (≤ 80)
2 | CC[C@@H](CCOC)[C@@H](Oc1ccccc1)[C@H](C)OC(=O)[C@H](C)NC(=O)c1nccc(OC)c1O [Cmpd 305] |  |  | A (> 80) | A (> 80) |  |  |  |  | A (> 80) | A (> 80) |  | 
3 | CCC(CC)[C@@H](Oc1ccccc1)[C@H](C)OC(=O)[C@H](C)NC(=O)c1nccc(OC)c1O [Cmpd 306] |  |  | A (> 80) | A (> 80) |  |  |  |  | A (> 80) | A (> 80) |  | 
4 | CCC(CC)[C@@H](Oc1ccccc1)[C@H](C)OC(=O)CNC(=O)c1nccc(OC)c1O [Cmpd 307] |  |  | A (> 80) | A (> 80) |  |  |  |  | D | A (> 80) |  | 
5 | CC[C@@H](CCOC)[C@@H](Oc1ccccc1)[C@H](C)OC(=O)[C@@H](C)NC(=O)c1nccc(OC)c1O [Cmpd 308] |  |  | D | D |  |  |  |  | D | B (≤ 80) |  | 
6 | CC[C@H](Oc1ccccc1)[C@@H](Oc1ccccc1)[C@H](C)OC(=O)[C@H](C)NC(=O)c1nccc(OC)c1O [Cmpd 309] |  |  | A (> 80) | A (> 80) |  |  |  |  | A (> 80) | B (≤ 80) |  | 
7 | CCCOC[C@@H](Oc1ccccc1)[C@H](C)OC(=O)[C@H](C)NC(=O)c1nccc(OC)c1O [Cmpd 310] |  |  | A (> 80) | A (> 80) |  |  |  |  | D | B (≤ 80) |  | 
8 | CC[C@H](Cc1ccccc1)[C@@H](Oc1ccccc1)[C@H](C)OC(=O)[C@H](C)NC(=O)c1nccc(OC)c1O [Cmpd 311] |  |  | A (> 80) | A (> 80) |  |  |  |  | A (> 80) | B (≤ 80) |  | 
9 | CC[C@H](Cc1ccccc1)[C@@H](Oc1ccccc1)[C@H](C)OC(=O)CNC(=O)c1nccc(OC)c1O [Cmpd 312] |  |  | A (> 80) | A (> 80) |  |  |  |  | D | D |  | 
10 | CC[C@@H](Cc1ccccc1)[C@H](Oc1ccccc1)[C@H](C)OC(=O)[C@H](C)NC(=O)c1nccc(OC)c1O [Cmpd 313] |  |  | A (> 80) | A (> 80) |  |  |  |  | A (> 80) | B (≤ 80) |  | 
11 | CCCOC[C@@H](Oc1ccccc1)[C@H](C)OC(=O)[C@H](CC)NC(=O)c1nccc(OC)c1O [Cmpd 314] |  |  | A (> 80) | B (≤ 80) |  |  |  |  | B (≤ 80) | D |  | 
12 | COc1ccnc(C(=O)N[C@@H](C)C(=O)O[C@@H](C)[C@@H](COc2ccccc2)Oc2ccccc2)c1O [Cmpd 315] |  |  | B (≤ 80) | A (> 80) |  |  |  |  | B (≤ 80) | B (≤ 80) |  | 
13 | CC[C@H](NC(=O)c1nccc(OC)c1O)C(=O)O[C@@H](C)[C@@H](COc1ccccc1)Oc1ccccc1 [Cmpd 316] |  |  | A (> 80) | A (> 80) |  |  |  |  | B (≤ 80) | B (≤ 80) |  | 
14 | CCC(CCC(C)C)C(Oc1ccccc1)C(C)OC(=O)C(C)NC(=O)c1nccc(OC)c1O (stereo not drawn) [Cmpd 317] |  |  | A (> 80) | B (≤ 80) |  |  |  |  | A (> 80) | B (≤ 80) |  | 
15 | CCC(CCC(C)C)C(OCC1CC1)C(C)OC(=O)C(C)NC(=O)c1nccc(OC)c1O (stereo not drawn) [Cmpd 318] |  |  | D | B (≤ 80) |  |  |  |  | D | B (≤ 80) |  | 
16 | COc1ccnc(C(=O)N[C@@H](C)C(=O)O[C@@H](C)[C@H](OCC2CC2)c2ccccc2)c1O [Cmpd 319] |  |  | A (> 80) | B (≤ 80) |  |  |  |  | A (> 80) | A (> 80) |  | 
17 | CCCO[C@@H]([C@H](C)OC(=O)[C@H](C)NC(=O)c1nccc(OC)c1O)[C@H](CC)Oc1ccccc1 [Cmpd 326, (S)-(2S,3S,4S)-4-phenoxy-3-propoxyhexan-2-yl-2-(3-hydroxy-4-methoxypicolinamido)propanoate] |  |  | A (> 80) | A (> 80) |  |  |  |  | D | D |  | 
18 | COc1ccnc(C(=O)N[C@@H](C)C(=O)O[C@@H](C)COCc2ccccc2)c1O [Cmpd 331] |  |  | B (≤ 80) | A (> 80) |  |  |  |  | B (≤ 80) | D |  | 
19 | C=CC[C@@H](OCc1ccccc1)[C@H](C)OC(=O)[C@H](C)NC(=O)c1nccc(OC)c1O [Cmpd 333, (S)-(2S,3R)-3-(benzyloxy)hex-5-en-2-yl-2-(3-hydroxy-4-methoxypicolinamido)propanoate] |  |  | A (> 80) | A (> 80) |  |  |  |  | B (≤ 80) | B (≤ 80) |  | 
